In ChEMBL document CHEMBL5365457, “Selective HDAC3 Inhibitors with Potent In Vivo Antitumor Efficacy against Triple-Negative Breast Cancer” (J Med Chem, 2023):

Tests used:
[1] = Selectivity ratio of IC50 for cytotoxicity against human HEK293 cells assessed as inhibition of cell growth to IC50 for cytotoxicity against human MDA-MB-453 cells assessed as inhibition of cell growth; format: toxicity, cell-based; details: HEK293 cells versus MDA-MB-453 cells, read-out: Ratio IC50
[2] = Selectivity ratio of IC50 for cytotoxicity against human MCF-10A cells assessed as inhibition of cell growth to IC50 for cytotoxicity against […] cells assessed as inhibition of cell growth; format: toxicity, cell-based; details: MCF-10A cells versus 4T1 cells, read-out: Ratio IC50
[3] = Selectivity ratio of IC50 for cytotoxicity against human HCEC cells assessed as inhibition of cell growth to IC50 for cytotoxicity against human MDA-MB-453 cells assessed as inhibition of cell growth; format: toxicity, cell-based; details: HCEC cells versus MDA-MB-453 cells, read-out: Ratio IC50
[4] = target: Histone deacetylase 2 (Homo sapiens, UniProt Q92769); assay: Inhibition of human recombinant HDAC2 at 1 uM incubated for 30 mins by fluorescence based microplate assay relative to control
Sequence of Histone deacetylase 2 (Q92769 whole entry): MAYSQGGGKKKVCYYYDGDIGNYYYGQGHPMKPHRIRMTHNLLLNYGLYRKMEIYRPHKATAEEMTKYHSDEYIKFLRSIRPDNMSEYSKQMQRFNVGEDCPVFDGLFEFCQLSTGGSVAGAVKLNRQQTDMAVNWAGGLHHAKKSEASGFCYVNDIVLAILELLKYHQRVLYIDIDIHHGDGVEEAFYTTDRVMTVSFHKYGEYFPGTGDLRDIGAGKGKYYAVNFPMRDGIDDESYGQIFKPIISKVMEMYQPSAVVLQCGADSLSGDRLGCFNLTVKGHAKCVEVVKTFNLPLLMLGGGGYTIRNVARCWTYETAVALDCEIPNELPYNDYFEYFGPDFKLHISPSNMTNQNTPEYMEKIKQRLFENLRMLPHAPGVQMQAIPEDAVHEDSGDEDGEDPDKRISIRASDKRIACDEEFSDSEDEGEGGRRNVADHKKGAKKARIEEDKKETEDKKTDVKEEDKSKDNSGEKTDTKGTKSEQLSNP

[5] = system: MCF7; assay: Cytotoxicity against human MCF7 cells assessed as inhibition of cell growth incubated for 72 hrs by MTT assay; format: functional, cell-based; details: MCF7, 72 h
[6] = Cytotoxicity against human HCEC cells assessed as inhibition of cell growth incubated for 72 hrs by MTT assay; format: toxicity, cell-based; details: for IC50 at 72 h: human, HCEC cells
[7] = system: MDA-MB-453; assay: Cytotoxicity against human MDA-MB-453 cells assessed as inhibition of cell growth incubated for 72 hrs by MTT assay; format: functional, cell-based; details: MDA-MB-453, 72 h
[8] = Selectivity ratio of IC50 for cytotoxicity against human HCEC cells assessed as inhibition of cell growth to IC50 for cytotoxicity against human MCF7 cells assessed as inhibition of cell growth; format: toxicity, cell-based; details: HCEC cells versus MCF7 cells, read-out: Ratio IC50
[9] = Selectivity ratio of IC50 for cytotoxicity against human MCF-10A cells assessed as inhibition of cell growth to IC50 for cytotoxicity against human MDA-MB-453 cells assessed as inhibition of cell growth; format: toxicity, cell-based; details: MCF-10A cells versus MDA-MB-453 cells, read-out: Ratio IC50
[10] = Selectivity ratio of IC50 for cytotoxicity against human HCEC cells assessed as inhibition of cell growth to IC50 for cytotoxicity against human MDA-MB-231 cells assessed as inhibition of cell growth; format: toxicity, cell-based; details: HCEC cells versus MDA-MB-231 cells, read-out: Ratio IC50
[11] = Selectivity ratio of IC50 for cytotoxicity against human HEK293 cells assessed as inhibition of cell growth to IC50 for cytotoxicity against mouse 4T1 cells assessed as inhibition of cell growth; format: toxicity, cell-based; details: HEK293 cells versus 4T1 cells, read-out: Ratio IC50
[12] = system: 4T1; assay: Cytotoxicity against mouse 4T1 cells assessed as inhibition of cell growth incubated for 72 hrs by MTT assay; format: functional, cell-based; details: 4T1, 72 h
[13] = Selectivity ratio of IC50 for cytotoxicity against human HEK293 cells assessed as inhibition of cell growth to IC50 for cytotoxicity against human MCF7 cells assessed as inhibition of cell growth; format: toxicity, cell-based; details: HEK293 cells versus MCF7 cells, read-out: Ratio IC50
[14] = Selectivity ratio of IC50 for cytotoxicity against human HEK293 cells assessed as inhibition of cell growth to IC50 for cytotoxicity against human MDA-MB-231 cells assessed as inhibition of cell growth; format: toxicity, cell-based; details: HEK293 cells versus MDA-MB-231 cells, read-out: Ratio IC50
[15] = Cytotoxicity against human HEK293 cells assessed as inhibition of cell growth incubated for 72 hrs by MTT assay; format: toxicity, cell-based
[16] = Selectivity ratio of IC50 for cytotoxicity against human HCEC cells assessed as inhibition of cell growth to IC50 for cytotoxicity against mouse 4T1 cells assessed as inhibition of cell growth; format: toxicity, cell-based; details: HCEC cells versus 4T1 cells, read-out: Ratio IC50
[17] = system: MDA-MB-231; assay: Cytotoxicity against human MDA-MB-231 cells assessed as inhibition of cell growth incubated for 72 hrs by MTT assay; format: functional, cell-based; details: MDA-MB-231, 72 h
[18] = Cytotoxicity against human MCF-10A cells assessed as inhibition of cell growth incubated for 72 hrs by MTT assay; format: toxicity, cell-based
[19] = Selectivity ratio of IC50 for cytotoxicity against human MCF-10A cells assessed as inhibition of cell growth to IC50 for cytotoxicity against human MDA-MB-231 cells assessed as inhibition of cell growth; format: toxicity, cell-based; details: MCF-10A cells versus MDA-MB-231 cells, read-out: Ratio IC50
[20] = target: Histone deacetylase 3 (Homo sapiens, UniProt O15379); assay: Inhibition of human recombinant HDAC3 at 1 uM measured after 30 mins by fluorescence based microplate assay relative to control
Sequence of Histone deacetylase 3 (O15379 whole entry): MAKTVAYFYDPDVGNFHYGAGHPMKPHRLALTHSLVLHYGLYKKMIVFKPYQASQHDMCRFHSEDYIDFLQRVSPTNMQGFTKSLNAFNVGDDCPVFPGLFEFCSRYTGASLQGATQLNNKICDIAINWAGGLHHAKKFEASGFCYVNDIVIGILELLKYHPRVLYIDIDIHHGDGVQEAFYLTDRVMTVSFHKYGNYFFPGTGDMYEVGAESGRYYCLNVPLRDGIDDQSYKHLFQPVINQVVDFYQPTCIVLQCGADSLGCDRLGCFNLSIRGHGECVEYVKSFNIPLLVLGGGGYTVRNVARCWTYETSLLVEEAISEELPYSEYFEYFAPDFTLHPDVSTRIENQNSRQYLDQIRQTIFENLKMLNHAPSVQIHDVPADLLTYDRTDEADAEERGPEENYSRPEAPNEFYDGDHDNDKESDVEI

[21] = Selectivity ratio of IC50 for cytotoxicity against human MCF-10A cells assessed as inhibition of cell growth to IC50 for cytotoxicity against human MCF7 cells assessed as inhibition of cell growth; format: toxicity, cell-based; details: MCF-10A cells versus MCF7 cells, read-out: Ratio IC50
[22] = target: Histone deacetylase 1 (Homo sapiens, UniProt Q13547); assay: Inhibition of full length N-terminal human recombinant HDAC1 at 1 uM incubated for 30 mins by fluorescence based microplate assay relative to control
Sequence of Histone deacetylase 1 (Q13547 whole entry): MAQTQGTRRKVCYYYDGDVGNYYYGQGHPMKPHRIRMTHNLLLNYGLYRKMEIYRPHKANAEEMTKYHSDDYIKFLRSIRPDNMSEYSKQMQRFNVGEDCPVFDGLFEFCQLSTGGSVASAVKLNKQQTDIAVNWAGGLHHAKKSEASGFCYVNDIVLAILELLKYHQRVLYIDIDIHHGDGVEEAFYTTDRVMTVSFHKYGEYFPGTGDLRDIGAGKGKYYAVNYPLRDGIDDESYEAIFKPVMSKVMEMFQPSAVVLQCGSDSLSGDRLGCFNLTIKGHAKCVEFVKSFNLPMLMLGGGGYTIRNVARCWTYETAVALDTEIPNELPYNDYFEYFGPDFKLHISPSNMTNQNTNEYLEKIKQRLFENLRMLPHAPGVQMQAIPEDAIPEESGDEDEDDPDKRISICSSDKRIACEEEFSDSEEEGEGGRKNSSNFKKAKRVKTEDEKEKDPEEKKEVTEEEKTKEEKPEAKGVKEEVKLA

[23] = target: T1, Protein deacetylase HDAC6 (Homo sapiens, UniProt Q9UBN7); assay: Inhibition of HDAC6 (unknown origin)
T1 sequence (Q9UBN7 whole entry): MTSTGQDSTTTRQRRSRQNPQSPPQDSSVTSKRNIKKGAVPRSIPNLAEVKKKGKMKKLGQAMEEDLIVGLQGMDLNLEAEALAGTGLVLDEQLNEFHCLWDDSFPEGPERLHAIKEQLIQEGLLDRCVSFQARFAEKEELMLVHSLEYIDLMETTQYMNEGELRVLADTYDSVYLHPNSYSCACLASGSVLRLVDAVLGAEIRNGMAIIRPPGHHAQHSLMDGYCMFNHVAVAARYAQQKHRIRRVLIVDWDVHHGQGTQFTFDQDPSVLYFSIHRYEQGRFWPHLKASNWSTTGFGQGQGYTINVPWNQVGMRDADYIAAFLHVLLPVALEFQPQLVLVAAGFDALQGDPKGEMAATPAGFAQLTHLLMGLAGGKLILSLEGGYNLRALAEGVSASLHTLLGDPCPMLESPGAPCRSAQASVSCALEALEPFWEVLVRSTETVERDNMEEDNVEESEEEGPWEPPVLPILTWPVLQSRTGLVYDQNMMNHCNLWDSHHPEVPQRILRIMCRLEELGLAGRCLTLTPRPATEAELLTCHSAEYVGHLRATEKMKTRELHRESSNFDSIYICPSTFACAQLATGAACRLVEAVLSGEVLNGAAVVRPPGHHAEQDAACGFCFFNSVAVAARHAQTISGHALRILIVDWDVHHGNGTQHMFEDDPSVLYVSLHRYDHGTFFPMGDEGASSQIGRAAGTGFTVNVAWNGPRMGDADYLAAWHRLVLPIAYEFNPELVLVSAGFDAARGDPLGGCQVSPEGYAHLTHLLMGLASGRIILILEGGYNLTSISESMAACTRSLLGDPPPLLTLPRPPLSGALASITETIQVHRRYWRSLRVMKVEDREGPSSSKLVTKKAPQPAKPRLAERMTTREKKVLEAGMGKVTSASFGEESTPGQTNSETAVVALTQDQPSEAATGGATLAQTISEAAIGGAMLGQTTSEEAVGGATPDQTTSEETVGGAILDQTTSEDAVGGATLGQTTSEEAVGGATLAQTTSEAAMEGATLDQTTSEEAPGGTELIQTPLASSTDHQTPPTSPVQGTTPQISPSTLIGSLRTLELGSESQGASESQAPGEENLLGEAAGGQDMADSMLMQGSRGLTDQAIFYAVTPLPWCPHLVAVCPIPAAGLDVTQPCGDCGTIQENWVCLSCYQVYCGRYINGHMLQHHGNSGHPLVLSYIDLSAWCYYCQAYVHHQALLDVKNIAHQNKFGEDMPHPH

[24] = target: T2, Histone deacetylase 8 (Homo sapiens, UniProt Q9BY41); assay: Inhibition of HDAC8 (unknown origin)
T2 sequence (Q9BY41 whole entry): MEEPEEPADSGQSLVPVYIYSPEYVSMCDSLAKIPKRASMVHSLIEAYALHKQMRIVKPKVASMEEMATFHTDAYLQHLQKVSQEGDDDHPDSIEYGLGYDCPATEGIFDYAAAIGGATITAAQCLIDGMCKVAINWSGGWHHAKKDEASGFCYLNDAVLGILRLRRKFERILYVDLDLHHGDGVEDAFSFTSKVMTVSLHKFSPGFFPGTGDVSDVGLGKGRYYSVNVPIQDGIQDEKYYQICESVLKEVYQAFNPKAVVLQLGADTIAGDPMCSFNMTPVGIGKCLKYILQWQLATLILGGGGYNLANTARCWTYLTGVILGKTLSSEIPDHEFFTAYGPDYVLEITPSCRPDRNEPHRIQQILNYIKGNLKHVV

[25] = target: T1, Protein deacetylase HDAC6; assay: Inhibition of human recombinant HDAC6 incubated for 15 mins by fluorescence based microplate analysis
[26] = target: T2, Histone deacetylase 8; assay: Inhibition of human recombinant HDAC8 incubated for 10 mins by fluorescence based microplate analysis

Compound	selectivity ratio [1]	selectivity ratio [2]	selectivity ratio [3]	IC50 [5]	IC50 at 72 h [6]	IC50 [7]	selectivity ratio [8]	selectivity ratio [9]	selectivity ratio [10]	selectivity ratio [11]	IC50 [12]	selectivity ratio [13]	selectivity ratio [14]	IC50 at 72 h [15]	selectivity ratio [16]	IC50 [17]	IC50 at 72 h [18]	selectivity ratio [19]	inhibition [20]	selectivity ratio [21]	also measured
CCCNNC(=O)c1cnc(NC(=O)c2ccc3ncccc3c2)cn1	> 40	> 40	> 40	1.01 µM	131 µM	1.82 µM	> 40	> 40	> 40	> 40	0.59 µM	> 40	> 40	126 µM	> 40	0.87 µM	140 µM	> 40	> 70%	> 40	inhibition [4]: < 17%; inhibition [22]: < 17%
CCCNNC(=O)c1cnc(NC(=O)c2ccc3[nH]ccc3c2)cn1	> 40	> 40	> 40	2.03 µM	180 µM	2.19 µM	> 40	> 40	> 40	> 40	0.71 µM	> 40	> 40	138 µM	> 40	0.92 µM	125 µM	> 40	> 70%	> 40	inhibition [4]: < 17%; inhibition [22]: < 17%
CCCNNC(=O)c1cnc(NCc2ccccc2)cn1	> 40	> 40	> 40	1.12 µM	140 µM	2.76 µM	> 40	> 40	> 40	> 40	1.15 µM	> 40	> 40	110 µM	> 40	1.23 µM	114 µM	> 40	> 70%	> 40	inhibition [4]: < 17%; inhibition [22]: < 17%
Nc1ccccc1NC(=O)c1cnccn1																					IC50 [23]: 34.2 µM; IC50 [24]: 28.5 µM
Nc1ccccc1NC(=O)c1cnc(NCc2ccccc2)cn1																					IC50 [25]: 37.2 µM; IC50 [26]: 15.6 µM
CCCCNNC(=O)c1cnc(NCc2ccc(OC)cc2)cn1	> 40	> 40	> 40	2.59 µM		2.68 µM	> 40	> 40	> 40	> 40	0.93 µM	> 40	> 40	107 µM	> 40	0.97 µM	109 µM	> 40	> 70%	> 40	IC50 ([6]; hcec): 1370 µM
CCCNNC(=O)c1cnc(Nc2ccccc2)cn1	> 40	> 40	> 40	3.28 µM	196 µM	5.44 µM	> 40	> 40	> 40	> 40	2.76 µM	> 40	> 40	218 µM	> 40	1.88 µM	205 µM	> 40	> 70%	> 40	
